Results: PMC8373983, “Effect of salinity on the zinc(II) binding efficiency of siderophore functional groups and implications for salinity tolerance mechanisms in barley” (Scientific Reports, 2021)
Marks after values point to notes of the source that are not given here. One block for each compound: values may come before it.

Columns and labels:
[1] = Ligand protonation constants, potentiometric titration in NaCl; type: physicochemical; details: T = 298.1 K; for logβ^0, H+ + L = HL: intrinsic, modified Extended Debye–Hückel fit (direct); for C, H+ + L = HL: parameter of ionic strength dependence, NaCl
Protocol: (§1) Potentiometric measurements were carried out at T = 298.1 ± 0.1 K in thermostatted cells. The setup consisted of a Metrohm model 888 Titrando apparatus controlled by Metrohm TiAMO 1.2 software equipped with a combined gel electrode (VWR model 662 1759). Estimated precision was 0.2 mV and 0.003 ml for the electromotive force and titrant volume readings, respectively. All the potentiometric titrations were carried out under magnetic stirring and bubbling purified presaturated N2 through the solution to exclude O2 and CO2.
(§2) A 30 ml solution containing each ligand ([L] = 5 – 10 mM), NaCl and HCl was titrated with standard NaOH solutions. For the zinc(II)/ligand systems, the titrant solutions consisted of different amounts of ligand ([L] = 5 − 10 mM), zinc(II) ([Zn] = 0.5—5 mM) and a suitable amount of HCl and NaCl. All the measurements were carried out with an excess of the ligand, with respect to zinc(II) and at different zinc(II):ligand molar ratios. The selection of ratios investigated was determined by simulating titrations using Hyperquad Simulation and Speciation computer software (HySS)[41]. [Zn] and [L] were negligible compared to the background electrolyte concentrations. […] To account for the influence of zinc(II) hydrolysis in the zinc(II)/ligand systems, zinc(II) titrations were carried out separately at each ionic strength to determine the hydroxide constants so that these constants could be included in the equilibrium model used to refine the titration data. In these titrations, the zinc(II) concentration in the analyte solution was 0.7 mM.
(§3) Before each experiment, independent titrations of strong acid solutions with standard base were carried out under the same medium and ionic strength conditions as the systems to be investigated, with the aim of determining the electrode potential (E^0’) using GLEE software. In this way, the pH scale used was the […], pH = -log [H]^+, where [H]^+ is the free proton concentration. For each titration, approximately 80 to 100 data points were collected. The equilibrium state during titrations was checked by confirming the time required to reach equilibrium.
(§4) The software program Hyperquad was used to determine the equilibrium model and to calculate pKa and stability constants from the potentiometric data set[43]. For each set of pKa constants or zinc(II):ligand ratio studied, at least two repeat titrations were performed. The titration curves for each system were treated as a single set when refining the stability constants. This meant that the refinement procedure was run on both curves at the same time to derive a single set of constants. The error reported on the stability constants is the standard deviation given in the Hyperquad output file. Examples of Hyperquad files for the zinc(II)/PYR system are provided on the Zenodo repository (https://doi.org/10.5281/zenodo.4641710).
(§5) The ionic strength dependence of the stability constants was studied with the modified version of the Extended Debye–Hückel equation[28]. The Monte Carlo method, as described by Hu et al.[43], was used to estimate 95% confidence intervals on the parameters of ionic strength dependence; for each species, predicted stability constants were resampled using an inverse of the cumulative normal distribution function to give sets of simulated data from which the unknown parameters were optimized. An example Excel calculation file for the application of the modified version of the Extended Debye–Hückel equation to the zinc(II)/PYR system (including the calculation of error on parameters of ionic strength dependence) has been uploaded to the Zenodo repository (https://doi.org/10.5281/zenodo.4641710).
(§6) To quantify the improvement of using a direct vs. indirect method for studying ionic strength dependence, the Davies equation (Eq. 3) was applied to the zinc(II)/PYR data. Speciation calculations for a [Zn] = 10^–6 M and [L] = 10^–5 M system at infinite dilution were conducted with the aid of HySS. […]

[2] = Zinc(II)-ligand stability constants, potentiometric titration in NaCl; type: binding
Protocol: as §1, §2, §3, §4, §5, §6

[3] = intrinsic, modified Extended Debye–Hückel fit (direct), T = 298.1 K
[4] = parameter of ionic strength dependence, NaCl

log β, H+ + L = HL ([1]; 0.05 M NaCl): 3.55 ± 0.01 | log β, H+ + L = HL ([1]; 0.15 M NaCl): 3.49 ± 0.01 | log β, H+ + L = HL ([1]; 0.30 M NaCl): 3.54 ± 0.01 | log β, H+ + L = HL ([1]; 0.70 M NaCl): 3.44 ± 0.01 | log β, H+ + L = HL ([1]; 1.00 M NaCl): 3.39 ± 0.01 | logβ^0, H+ + L = HL [1]: 3.750^b | C, H+ + L = HL [1]: 0.070^b | stability lower than the equivalent 1:1 zinc(II)-PYR structure ([2]; 1:1 zinc(II) complex): approximately 7 logβ units | decrease in the 1:1 zinc(II) stability constant ([2]; between 0.00 and 1.00 M NaCl): ~80% | decrease of the 1:1 zinc(II) stability constant ([2]; between 0.00 and 1.00 M NaCl): 2.19 logβ units
Structure (SMILES): O=C(O)CO [GLY, glycolic acid]
log β, Zn2+ + L = ZnL (1:1) ([2]; 0.05 M NaCl, T = 298.1 K): 2.83±0.02 | log β, Zn2+ + L = ZnL (1:1) ([2]; 0.15 M NaCl, T = 298.1 K): 2.10±0.01 | log β, Zn2+ + L = ZnL (1:1) ([2]; 0.30 M NaCl, T = 298.1 K): 1.93±0.01 | log β, Zn2+ + L = ZnL (1:1) ([2]; 0.70 M NaCl, T = 298.1 K): 1.25±0.03 | log β, Zn2+ + L = ZnL (1:1) ([2]; 1.00 M NaCl, T = 298.1 K): 0.83±0.04 | logβ0, Zn2+ + L = ZnL (1:1) [2, 3]: 3.018±0.003 | C, Zn2+ + L = ZnL (1:1) [2, 4]: -1.418±0.006

log β, H+ + L = HL ([1]; 0.05 M NaCl): 9.28 ± 0.01 | log β, H+ + L = HL ([1]; 0.15 M NaCl): 9.06 ± 0.01 | log β, H+ + L = HL ([1]; 0.30 M NaCl): 9.10 ± 0.01 | log β, H+ + L = HL ([1]; 0.70 M NaCl): 9.04 ± 0.01 | log β, H+ + L = HL ([1]; 1.00 M NaCl): 9.07 ± 0.01 | logβ^0, H+ + L = HL [1]: 9.376 ± 0.001 | C, H+ + L = HL [1]: 0.085 ± 0.001 | stability of the 1:1 zinc(II) species below/above the equivalent PYR and GLY complexes ([2]; 1:1 zinc(II) complex): 3.5–4 logβ units | decrease of the 1:1 zinc(II) stability constant ([2]; between 0.00 and 1.00 M NaCl): 0.79 logβ units | decrease of the 1:1 zinc(II) stability constant ([2]; between 0.05 and 1.00 M NaCl): 14%
Structure (SMILES): CC(=O)NO [AHA, acetohydroxamic acid]
log β, Zn2+ + 2L = ZnL2 ([2]; 0.05 M NaCl, T = 298.1 K): 9.60±0.01 | log β, Zn2+ + 2OH- + L- = ZnOH2L- ([2]; 0.05 M NaCl, T = 298.1 K): -13.60±0.04 | log β, Zn2+ + L = ZnL (1:1) ([2]; 0.05 M NaCl, T = 298.1 K): 5.32±0.01 | log β, Zn2+ + OH- + L- = ZnOHL ([2]; 0.05 M NaCl, T = 298.1 K): -3.22±0.04 | log β, Zn2+ + 2L = ZnL2 ([2]; 0.15 M NaCl, T = 298.1 K): 9.16±0.01 | log β, Zn2+ + 2OH- + L- = ZnOH2L- ([2]; 0.15 M NaCl, T = 298.1 K): -13.65±0.01 | log β, Zn2+ + L = ZnL (1:1) ([2]; 0.15 M NaCl, T = 298.1 K): 5.10±0.01 | log β, Zn2+ + OH- + L- = ZnOHL ([2]; 0.15 M NaCl, T = 298.1 K): -3.64±0.02 | log β, Zn2+ + 2L = ZnL2 ([2]; 0.30 M NaCl, T = 298.1 K): 9.11±0.01 | log β, Zn2+ + 2OH- + L- = ZnOH2L- ([2]; 0.30 M NaCl, T = 298.1 K): -13.21±0.07 | log β, Zn2+ + L = ZnL (1:1) ([2]; 0.30 M NaCl, T = 298.1 K): 5.01±0.03 | log β, Zn2+ + OH- + L- = ZnOHL ([2]; 0.30 M NaCl, T = 298.1 K): -4.22±0.08 | log β, Zn2+ + 2L = ZnL2 ([2]; 0.70 M NaCl, T = 298.1 K): 8.79±0.01 | log β, Zn2+ + 2OH- + L- = ZnOH2L- ([2]; 0.70 M NaCl, T = 298.1 K): -14.07±0.02 | log β, Zn2+ + L = ZnL (1:1) ([2]; 0.70 M NaCl, T = 298.1 K): 4.87±0.01 | log β, Zn2+ + OH- + L- = ZnOHL ([2]; 0.70 M NaCl, T = 298.1 K): -4.07±0.02 | log β, Zn2+ + 2L = ZnL2 ([2]; 1.00 M NaCl, T = 298.1 K): 8.79±0.01 | log β, Zn2+ + 2OH- + L- = ZnOH2L- ([2]; 1.00 M NaCl, T = 298.1 K): -13.96±0.01 | log β, Zn2+ + L = ZnL (1:1) ([2]; 1.00 M NaCl, T = 298.1 K): 4.82±0.01 | log β, Zn2+ + OH- + L- = ZnOHL ([2]; 1.00 M NaCl, T = 298.1 K): -4.41±0.04 | logβ0, Zn2+ + 2L = ZnL2 [2, 3]: 10.021±0.001 | C, Zn2+ + 2L = ZnL2 [2, 4]: -0.052±0.002 | C, Zn2+ + 2OH- + L- = ZnOH2L- [2, 4]: 0.571±0.017 | C, Zn2+ + OH- + L- = ZnOHL [2, 4]: 1.2095±0.027
